Test results published in ChEMBL document CHEMBL1144957, “Highly cytotoxic benzo[c]pyrido[2,3,4-kl]acridines” (Bioorg Med Chem Lett, 2003).

Key:
Calf thymus DNA [1] = experiment: Apparent calf thymus DNA-binding constant; format: nucleic-acid assay; conditions: Bos taurus
Nucleic Acid = experiment: Binding to DNA as change in thermal denaturation temperature of poly(dAT)2 DNA; format: nucleic-acid assay
PC-3 = experiment: In vitro inhibitory concentration against human prostate carcinoma PC-3 cell line using MTT assay after incubation for 72 h; format: functional, cell-based; conditions: PC-3, 72 h
Calf thymus DNA [2] = experiment: Apparent Calf thymus DNA DNA-binding constant; format: nucleic-acid assay; conditions: Bos taurus

SMILES: COc1cc2nc3c(c4c2c(c1OC)NCC4)CCc1cc(OCCCN2CCN(C)CC2)ccc1-3
- K app (Calf thymus DNA [1]): 4.98e+06 M⁻¹
- ΔTm (Nucleic Acid): 7.5 °C
- IC50 (PC-3): 19.9 nM

SMILES: COc1ccc2c(c1)-c1nc3cc(OC)c(OC)c4c3c(c1CC2)CCN4C(C)=O
- IC50 (PC-3): > 1000 nM

SMILES: COc1cc2nc3c(c4c2c(c1OC)N(C(=O)CN1CCN(C)CC1)CC4)CCc1cc(OCCCN)ccc1-3
- K app (Calf thymus DNA [1]): 6.66e+06 M⁻¹
- ΔTm (Nucleic Acid): 11.9 °C
- IC50 (PC-3): 5.1 nM

SMILES: COc1cc2nc3c(c4c2c(c1OC)N(C(C)=O)CC4)CCc1cc(OCCCN2CCN(C)CC2)ccc1-3
- K app (Calf thymus DNA [2]): 2800 M⁻¹
- ΔTm (Nucleic Acid): 0.9 °C
- IC50 (PC-3): 11.2 nM

SMILES: COc1ccc2c(c1)CCc1c-2nc2cc(OC)c(OC)c3c2c1CCN3
- K app (Calf thymus DNA [1]): 3000 M⁻¹
- ΔTm (Nucleic Acid): 0 °C
- IC50 (PC-3): > 1000 nM

SMILES: COc1cc2nc3c(c4c2c(c1OC)NCC4)CCc1ccccc1-3
- K app (Calf thymus DNA [1]): 3600 M⁻¹
- ΔTm (Nucleic Acid): 0 °C
- IC50 (PC-3): > 1000 nM

SMILES: COc1cc2nc3c(c4c2c(c1OC)NCC4)CCc1cc(OCCCN)ccc1-3
- K app (Calf thymus DNA [1]): 6.86e+06 M⁻¹
- ΔTm (Nucleic Acid): 11.9 °C
- IC50 (PC-3): > 1000 nM

SMILES: COc1cc2nc3c(c4c2c(c1OC)N(C(=O)CN1CCN(C)CC1)CC4)CCc1ccccc1-3
- K app (Calf thymus DNA [1]): < 50000 M⁻¹
- ΔTm (Nucleic Acid): 0 °C
- IC50 (PC-3): > 1000 nM

SMILES: COc1ccc2c(c1)-c1nc3cc(OC)c(OC)c4c3c(c1CC2)CCN4C(=O)CN1CCN(C)CC1
- K app (Calf thymus DNA [1]): < 50000 M⁻¹
- ΔTm (Nucleic Acid): 0.9 °C
- IC50 (PC-3): > 1000 nM

SMILES: COc1cc2nc3c(c4c2c(c1OC)N(C(C)=O)CC4)CCc1cc(OCCCN)ccc1-3
- K app (Calf thymus DNA [1]): 6300 M⁻¹
- ΔTm (Nucleic Acid): 3.1 °C
- IC50 (PC-3): > 1000 nM

SMILES: COc1ccc2c(c1)CCc1c-2nc2cc(OC)c(OC)c3c2c1CCN3C(=O)CN1CCN(C)CC1
- K app (Calf thymus DNA [1]): < 50000 M⁻¹
- ΔTm (Nucleic Acid): 0.9 °C
- IC50 (PC-3): > 1000 nM

SMILES: COc1ccc2c(c1)CCc1c-2nc2cc(OC)c(OC)c3c2c1CCN3C(C)=O
- IC50 (PC-3): > 1000 nM

SMILES: COc1cc2nc3c(c4c2c(c1OC)N(C(C)=O)CC4)CCc1ccccc1-3
- IC50 (PC-3): > 1000 nM

SMILES: COc1cc2nc3c(c4c2c(c1OC)N(C(=O)CN1CCN(C)CC1)CC4)CCc1cc(OCCN)ccc1-3
- K app (Calf thymus DNA [1]): 4.51e+06 M⁻¹
- ΔTm (Nucleic Acid): 11.9 °C
- IC50 (PC-3): > 1000 nM

SMILES: COc1cc2nc3c(c4c2c(c1OC)N(C(C)=O)CC4)CCc1cc(O)ccc1-3
- IC50 (PC-3): > 1000 nM

SMILES: COc1cc2nc3c(c4c2c(c1OC)N(C(=O)CN1CCN(C)CC1)CC4)CCc1cc(OCCCN2CCN(C)CC2)ccc1-3
- K app (Calf thymus DNA [1]): 3.04e+06 M⁻¹
- ΔTm (Nucleic Acid): 0.9 °C
- IC50 (PC-3): > 1000 nM

SMILES: COc1ccc2c(c1)-c1nc3cc(OC)c(OC)c4c3c(c1CC2)CCN4
- K app (Calf thymus DNA [1]): 2400 M⁻¹
- ΔTm (Nucleic Acid): 0 °C
- IC50 (PC-3): > 1000 nM

SMILES: COc1cc2nc3c(c4c2c(c1OC)NCC4)CCc1cc(OCCN)ccc1-3
- K app (Calf thymus DNA [1]): 2.01e+06 M⁻¹
- ΔTm (Nucleic Acid): 12.1 °C
- IC50 (PC-3): > 1000 nM

SMILES: COc1cc2nc3c(c4c2c(c1OC)NCC4)CCc1cc(O)ccc1-3
- K app (Calf thymus DNA [1]): 1600 M⁻¹
- ΔTm (Nucleic Acid): 1.1 °C
- IC50 (PC-3): > 1000 nM

SMILES: COc1cc2nc3c(c4c2c(c1OC)N(C(C)=O)CC4)CCc1cc(OCCN)ccc1-3
- K app (Calf thymus DNA [1]): 4200 M⁻¹
- ΔTm (Nucleic Acid): 2.1 °C
- IC50 (PC-3): > 1000 nM
